Experimental data taken from US20050244360A1, “Cosmetic composition for greasy skin care, containing a carboxylic fatty acid or a derivative thereof” (L'OREAL, priority 2003, published 2005).

What was measured:
[1] = system: sebocytes from an immortalized human line; assay: Reduction of lipogenesis: lipids produced by immortalized human sebocytes, RED NILE dye fluorescence; type: cell-based; conditions: for QUANTITY OF LIPIDS MEASURED / REDUCTION IN LIPOGENESIS/CONTROL: 2 days of treatment; for QUANTITY OF LIPIDS MEASURED: control = 100; for REDUCTION IN LIPOGENESIS/CONTROL: vs culture medium control
Procedure: The test which was developed consisted of measuring, after 2 days of treatment, the quantity of lipids produced by sebocytes from an immortalized human line (in the presence or absence of active agents). The fluorescence emitted by RED NILE dye was measured at two distinct wavelengths to quantify the amount of characteristic neutral lipids of the sebum. Glucocorticoids are known to reduce the production of sebum in non […] subjects (Leveque, J. L. et al., (1991)). Thus, cortisol was selected as a reference, while the culture medium alone was selected as the control (no supplemental excipient was added either to the cortisol or to the azelaic acid, these latter being dissolved in the culture medium under the test conditions). […] Its activity was moderate compared with the pharmaceutical reference. Nevertheless, it should have a significant cosmetic action in a suitable formulation, if necessary by making repeated applications.

SZ 95 sebocytes = assay: Tolerability: cytotoxicity by production of LDH in the culture medium; type: cell-based, human; conditions: 1 μM
Procedure: The tolerability of azelaic acid was measured by measuring the cytotoxicty of the product using SZ 95 sebocytes (Zouboulis, Seltmann et al., 1999). The test conditions were the same as those given in Example 1. The cytotoxicity was measured by the production of LDH in the culture medium.

cutaneous micrococcaceae = conditions: topical gel containing 20% azelaic acid, male subjects with clinical acne; cited from earlier work
Propionibacterium sp = conditions: topical gel containing 20% azelaic acid, male subjects with clinical acne; cited from earlier work
sebum excretion = conditions: topical 20% azelaic acid gel, individuals with physiological acne; cited from earlier work
excreted sebum = conditions: doses used to treat acne (SKINOREN); subjects with acne, seborrheic skin without acne, normoseborrheic; cited from earlier work
human keratinocytes = conditions: concentrations of the order of 1 mM; cited from earlier work
sebum production = conditions: cited from earlier work

Row | Compound | QUANTITY OF LIPIDS MEASURED ([1]; 0.1 μM) | REDUCTION IN LIPOGENESIS/CONTROL ([1]; 0.1 μM) | effect on sebum production by sebocytes (in words) ([1]; 1 μM) | QUANTITY OF LIPIDS MEASURED ([1]; 1 μM) | REDUCTION IN LIPOGENESIS/CONTROL ([1]; 1 μM) | reduction in lipid secretion ([1]; 1 μM, model immortalized culture of human sebocytes) | activity compared with the pharmaceutical reference (cortisol) ([1]; azelaic acid 1 μM vs cortisol 0.1 μM) | sebocyte survival (in words) (SZ 95 sebocytes) | LDH VARIATION/CONTROL (SZ 95 sebocytes; same conditions as Example 1) | reduction of the number of cutaneous micrococcaceae, factor (cutaneous micrococcaceae) | reduction of the number of Propionibacterium sp, factor (Propionibacterium sp) | effect on sebum excretion (in words) (sebum excretion) | effect on quantity and composition of the excreted sebum (in words) (excreted sebum) | effect on proliferation of human keratinocytes (in words) (human keratinocytes) | ability to reduce sebum production (in words) (sebum production)
1 | C[C@]12CCC(=O)C=C1CC[C@@H]1[C@@H]2[C@@H](O)C[C@@]2(C)[C@H]1CC[C@]2(O)C(=O)CO [Cortisol] | 71 | −29% |  |  |  |  |  |  |  |  |  |  |  |  | 
2 | O=C(O)CCCCCCCC(=O)O [Azelaic acid, azelaic acid] |  |  | inhibits sebum production | 93 | −7% | 7% | moderate | improves sebocyte survival | −20% | 224 | 30 | did not cause a significant modification in sebum excretion | did not modify either the quantity or the composition of the excreted sebum | reduces the proliferation of human keratinocytes | inability of azelaic acid to reduce sebum production
